According to patent publication US12630532B2, “Indole-substituted quinolines and their combination with Plk1 inhibitors for the treatment of cancer” (UNIVERSITY OF KENTUCKY RESEARCH FOUNDATION, priority 2021, dated 2026):

test system: LS174T cells; assay: Cell proliferation inhibition assay (5 days, cell counting); assay type: cell-based; conditions: Homo sapiens, LS174T; read-out: Inhibition % on LS174T cells Proliferation 0.3 uM Inhib. %
Procedure: Cell proliferation inhibition assays were done following a previous report (32). Cancer cells were seeded into 24-well plates at a density of 20,000 cells per well in 1 mL of culture medium and were cultured overnight at 37° C. Compounds and the vehicle control (DMSO) were added to the cells. After 5 days, the medium was removed, and 100 μL of trypsin was added. The cells were resuspended in phosphate-buffered saline (PBS) and were counted by Vi-CELL XR 2.03 (Beckman Coulter, Inc. USA). The ratio R of the number of viable cells in the compound treatment group to the number of viable cells in DMSO treatment group was taken as relative growth, and the percentage growth inhibition was calculated as (1−R)*100.

For `Cn1cc(-c2cc3ccc(N4CCOCC4)cc3nc2N)c2ccccc21` [LMK-5-281], the inhibition at 0.3 µM was 30.9%.

same assay, conditions: Homo sapiens, LS174T; read-out: Inhibition % on LS174T cells Proliferation 1 uM Inhib. %

In order of rising inhibition at 1 µM:
1. Nc1nc2cc(N3CCOCC3)ccc2cc1-c1ccccc1F [LMK-5-284]  20.6%
2. COc1ccc(-c2csc(-c3cc4ccc(N(C)C)cc4nc3N)n2)cc1 [LMK-5-68]  24.2%
3. CN1CCN(c2ccc3cc(-c4cn(C)c5ccccc45)c(N)nc3c2)CC1 [LMK-5-282]  25.2%
4. CN1CCN(c2ccc3cc(-c4cc(Cl)cc(Cl)c4)c(N)nc3c2)CC1 [LMK-5-278]  27.9%
5. Nc1nc2cc(N3CCOCC3)ccc2cc1-c1cc(Cl)cc(Cl)c1 [LMK-5-276]  35%
6. CN(C)c1ccc2cc(-c3nc(-c4ccc(Br)cc4)cs3)c(N)nc2c1 [LMK-5-66]  45%
7. Nc1nc2cc(N3CCCCC3)ccc2cc1-c1cc(Cl)cc(Cl)c1 [LMK-5-279]  46.6%
8. Cn1cc(-c2cc3ccc(N4CCOCC4)cc3nc2N)c2ccccc21 [LMK-5-281]  93.7%
9. CN(C)c1ccc2cc(-c3nc(-c4ccccc4)cs3)c(N)nc2c1 [LMK-5-67]  96.9%

same assay, conditions: Homo sapiens, LS174T; read-out: Inhibition % on LS174T cells Proliferation 3 uM Inhib. %

In order of falling inhibition at 3 µM:
1. CN(C)c1ccc2cc(-c3nc(-c4ccccc4)cs3)c(N)nc2c1 [LMK-5-67]  99.8%
2. COc1ccc2c(c1)c(-c1cc3ccc(N(C)C)cc3nc1N)cn2C [VMS-7-29]  99.3%
3. CN(C)c1ccc2cc(-c3nc(-c4ccc(Br)cc4)cs3)c(N)nc2c1 [LMK-5-66]  98.9%
4. Cn1cc(-c2cc3ccc(N4CCOCC4)cc3nc2N)c2ccccc21 [LMK-5-281]  98.1%
5. CN(C)c1ccc2cc(-c3nc4ccc(Cl)cc4s3)c(N)nc2c1 [LMK-5-55]  97.6%
6. CNc1ccc2cc(-c3cc(Cl)cc(Cl)c3)c(N)nc2c1 [VMS-8-65]  97.2%
7. CN(C)c1ccc2cc(-c3nc4ccc(F)cc4s3)c(N)nc2c1 [LMK-5-52]  97%
8. CNc1ccc2cc(-c3cn(C)c4ccccc34)c(N)nc2c1 [VMS-8-67]  96.9%
9. CN(C)c1ccc2cc(-c3csc4ccccc34)c(N)nc2c1 [VMS-7-3]  96.7%
10. CN(C)c1ccc2cc(-c3nc4ccccc4s3)c(N)nc2c1 [VMS-7-1]  95.3%
11. COc1ccc(-c2csc(-c3cc4ccc(N(C)C)cc4nc3N)n2)cc1 [LMK-5-68]  94.3%
12. CN(C)c1ccc2cc(-c3nc4cc(C(C)(C)C)ccc4o3)c(N)nc2c1 [LMK-5-60]  91.5%
13. CN1CCN(c2ccc3cc(-c4cc(Cl)cc(Cl)c4)c(N)nc3c2)CC1 [LMK-5-278]  87.7%
14. Nc1nc2cc(N3CCCCC3)ccc2cc1-c1cc(Cl)cc(Cl)c1 [LMK-5-279]  87.6%
15. CN(C)c1ccc2cc(-c3cc(Cl)cc(Cl)c3)c(N)nc2c1 [VMS-4-103]  86.4%
16. Nc1nc2cc(N3CCOCC3)ccc2cc1-c1ccccc1F [LMK-5-284]  85.6%
17. COc1ccc2nc(-c3cc4ccc(N(C)C)cc4nc3N)sc2c1 [LMK-5-62]  85.5%
18. CN1CCN(c2ccc3cc(-c4cn(C)c5ccccc45)c(N)nc3c2)CC1 [LMK-5-282]  83.7%
19. Nc1nc2cc(N3CCOCC3)ccc2cc1-c1cc(Cl)cc(Cl)c1 [LMK-5-276]  65.2%
